Measured values reported in patent US20090197819A1, “Compositions for improving and repairing skin” (priority 2007, published 2009).

What was measured:
skeletal muscle = conditions: oral administration; cited from earlier work
skin = test: Preliminary application of ribose to skin without penetrant; type: in vivo; conditions: topical, no penetrant
Source text: The skin is a barrier. Preliminary effects to determine the effect on improving skin by the application of ribose were unsuccessful, leading the Applicants to the realization that ribose may not have penetrated to the basal cells and dermis. To get penetration it is advantageous to provide a penetrant to increase the concentration of active ingredient at the dermis and epidermis. A preferred penetrant is ethanol, which will be incorporated into the composition at a concentration of 0.1 to 15%, most preferably 10% weight to volume. The active ingredient may be at a concentration of from 0.5 to 10%, preferably 1%, weight to volume.

lymphocytes = conditions: previously shown by Applicants; cited from earlier work
Fibroblast cell cultures = test: Recovery of ATP in cultured fibroblasts after hypoxic stress; type: cell-based; conditions: fibroblasts at about 80% confluence, six hours hypoxic atmosphere, fresh medium, inspected at 12, 24 and 48 hours; first experiment
Protocol: Based on this information, Applicants believe that the same effect might be shown in cell culture with skin cells. The first skin cell be tested in vitro was the fibroblast, the culture of which is well known. The Coriell Institute for medical research publishes a web site with detailed instructions, the teachings of which are incorporated by reference. (Http:/locus.umdnj.edu/cer/faq/fibro.html.) Fibroblast cell cultures were tested to determine an optimal level of ribose as compared to glucose control.
To determine a protective effect of ribose, test and control plates were grown to about 80% confluence and subjected to a simulated environmental stress, six hours under an hypoxic atmosphere. Following exposure, the medium was aspirated off the culture and fresh medium applied. Cultures were inspected at 12, 24 and 48 hours to determine recovery of ATP to pre-hypoxia levels.

SMILES: O=C[C@H](O)[C@H](O)[C@H](O)CO [D-ribose]
- ATP levels in skeletal muscle (skeletal muscle): raises ATP levels
- effect on improving skin by the application of ribose (skin): unsuccessful
- growth of lymphocytes in cell culture (lymphocytes): stimulates the growth
- recovery of ATP to pre-hypoxia levels (of base ATP levels) (Fibroblast cell cultures): 19%
